Read-outs that look alike come from different tables or passages of the source.
How the values were obtained:
[1] = system: Leptosphaeria nodorum (LEPTNO); test: Isolated metal-hydrazone complexes versus parent hydrazones, in vitro, Leptosphaeria nodorum (Example 31, Table 7); format: cell-based; details: Parastagonospora nodorum; 0.1 μg/mL; copper-minus medium; 72 h
Phytophthora infestans = format: in vivo, Phytophthora infestans on tomato; details: applied 24 h before inoculation, assessed 7 days after inoculation
[2] = system: Leptosphaeria nodorum (glume blotch of wheat); test: Cu-hydrazone complexes versus parent hydrazones against glume blotch of wheat (Example 32, Table 8); format: in vivo, Leptosphaeria nodorum on wheat (cultivar Yuma); details: Parastagonospora nodorum, 200 ppm spray, inoculated after 24 h
Phytophthora capsici = test: In vitro fungitoxicity of hydrazones with and without copper towards Phytophthora capsici (Example 28, Table 3); format: cell-based; details: 48 h; for % Inhn Plus copper Observed: copper-plus AS medium (CuCl2, 50 μM); for inhibition of growth at 0.039 µg/mL / inhibition of growth at 0.05 µg/mL: Phytophthora capsici, copper-minus AS medium, read-out: % Inhn Minus copper Observed
[3] = system: Leptosphaeria nodorum (LEPTNO); test: In vitro fungitoxicity of hydrazones with and without copper towards Leptosphaeria nodorum (Example 26); format: cell-based; details: 72 h at 25° C.; for inhibition of growth at 0.05 µg/mL: Parastagonospora nodorum, 72 h, copper-minus medium, read-out: LEPTNO % Inhn. Minus Copper Observed
Ustilago maydis = test: In vitro fungitoxicity of hydrazones with and without copper towards Ustilago maydis (Example 29, Table 4); format: cell-based; details: 1 μg/mL, 48 h; for % Inhn. Plus copper Observed: copper-plus medium (CuCl2, 10 μM); for inhibition of growth at 1 µg/mL: Mycosarcoma maydis, copper-minus medium, read-out: % Inhn. Minus copper Observed
[4] = system: Septoria tritici isolate USA-184; test: In vitro fungitoxicity of hydrazones with and without copper towards Septoria tritici (Example 30, Table 5); format: cell-based; details: Zymoseptoria tritici, 0.05 μg/mL
[5] = hydrazone 50 ppm + 50 μM CuCl2.2H2O, tomato
[6] = compound 0.05 μg/mL, copper-plus medium (CuCl2.2H2O)
[7] = Colby formula, CuCl2, read-out: % Inhibition Plus copper Predicted
[8] = copper-minus medium, 90 h, read-out: % Inhibition Minus copper Observed
[9] = copper-plus medium CuCl2, 90 h, read-out: % Inhibition Plus copper Observed
[10] = hydrazone 50 ppm with 50 μM CuCl2.2H2O, tomato late blight
[11] = test compound Concn. 0.05 μg/mL
[12] = copper-plus medium (CuCl2 10 μM), test compound Concn. 0.05 μg/mL

| Compound | inhibition at 0.1 µg/mL [1] [%] | TLB % Control (Phytophthora infestans; [5]) [%] | pest or weed control at 200 ppm [2] [%] | % Inhn Plus copper Observed (Phytophthora capsici; 0.039 μg/mL) [%] | inhibition of growth at 0.039 µg/mL (Phytophthora capsici; 0.039 μg/mL) [%] | inhibition of growth at 0.05 µg/mL ([3]; compound 0.05 μg/mL) [%] | LEPTNO % Inhn. Plus Copper Observed [3, 6] [%] | melting point [°C] | % Inhn. Plus copper Observed (Ustilago maydis) [%] | inhibition of growth at 1 µg/mL (Ustilago maydis) [%] | inhibition at 0.05 µg/mL [4, 7] [%] | inhibition at 0.05 µg/mL [4, 8] [%] | inhibition at 0.05 µg/mL [4, 9] [%] | % Inhn Plus copper Observed (Phytophthora capsici; 0.050 μg/mL) [%] | inhibition of growth at 0.05 µg/mL (Phytophthora capsici; 0.050 μg/mL) [%] | TLB % Control (Phytophthora infestans; [10]) [%] | inhibition of growth at 0.05 µg/mL [3, 11] [%] | LEPTNO % Inhn. Plus Copper Observed [3, 12] [%] |
| --- | --- | --- | --- | --- | --- | --- | --- | --- | --- | --- | --- | --- | --- | --- | --- | --- | --- | --- |
| O=C(N/N=C/c1cc(Cl)cc(Cl)c1O)c1cc(Cl)ccc1Cl [Example 83] | 27.9 | 60.6 | 38 | 96.2 | 27.9 | 5.9 | 98.0 | 189 to 191 |  |  |  |  |  |  |  |  |  |  |
| Cc1ccccc1C(=O)N/N=C/c1cc(Cl)cc(Cl)c1O [Example 77] | 10.6 | 55.5 | 0 |  |  | 7.6 | 96.1 |  |  |  |  |  |  |  |  |  |  |  |
| O=C(N/N=C/c1cc(Cl)ccc1O)c1ccccc1 [Example 20] | 14.7 | 96.5 |  |  |  | 2.8 | 96.5 |  | 91.0 | 1.2 | 0 | 0 | 95.3 | 90.4 | 2.1 |  |  |  |
| O=C(N/N=C/c1cc(Cl)cc(C(F)(F)F)c1O)c1ccccc1 [Example 320] | 22.1 |  |  |  |  |  |  | 225 to 226 | 95.2 | 0 | 9.5 | 9.5 | 92.1 | 81.4 | 2.9 | 100.0 | 17.1 | 96.4 |
| O=C(N/N=C/c1cc(Cl)cc(Cl)c1O)c1ccccc1Br [Example 84] | 6.7 | 83.6 | 37 | 95.0 | 47.5 | 5.6 | 95.5 |  |  |  |  |  |  |  |  |  |  |  |
| O=C(N/N=C/c1cc(Cl)cc(Cl)c1O)c1cccc(Cl)c1 [Example 70] | 29.4 | 93.1 | 0 |  |  | 19.6 | 98.2 |  |  |  |  |  |  |  |  |  |  |  |
| O=C(N/N=C/c1cc(Cl)cc(Cl)c1O)c1ccccc1[N+](=O)[O-] [Example 96] | 10.7 | 78.2 | 0 | 91.9 | 55.2 | 1.2 | 93.6 |  |  |  |  |  |  |  |  |  |  |  |
| O=C(N/N=C/c1cccc(Cl)c1O)c1ccccc1 [Example 231] | 10.7 | 81.3 |  |  |  | 0 | 98.5 | 188 to 189 |  |  |  |  |  |  |  |  |  |  |
| O=C(N/N=C/c1cccc(C(F)(F)F)c1O)c1ccc(Cl)cc1 [Example 348] | 23.9 |  |  |  |  |  |  | 215 to 216 |  |  |  |  |  |  |  | 100.0 | 16.3 | 98.3 |

Reference: patent US20120010075A1 (priority 2009, published 2012)
